Converted amounts (≈) assume the structure as drawn. The source made the active and inactive calls. The calls are words filed in the database; no cut-off is given here.
Legend:
Format in all cases: functional
Aspergillus sydowii = test: Antimicrobial activity against Aspergillus sydowii MTCC 4335 assessed as growth inhibition after 5 days by broth microdilution method
Aspergillus parasiticus = test: Antimicrobial activity against Aspergillus parasiticus MTCC 2797 assessed as growth inhibition after 5 days by broth microdilution method
Aspergillus niger = test: Antimicrobial activity against Aspergillus niger MTCC 404 assessed as growth inhibition after 5 days by broth microdilution method
Pichia kudriavzevii = test: Antimicrobial activity against Pichia kudriavzevii MTCC 231 assessed as growth inhibition after 24 hr by broth microdilution method
Candida albicans = test: Antimicrobial activity against Candida albicans MTCC 3017 assessed as growth inhibition after 24 hr by broth microdilution method
Enterobacter cloacae = test: Antimicrobial activity against Enterobacter cloacae MTCC 509 assessed as growth inhibition after 24 hr by broth microdilution method
Pseudomonas aeruginosa = test: Antimicrobial activity against Pseudomonas aeruginosa MTCC 424 assessed as growth inhibition after 24 hr by broth microdilution method
Klebsiella pneumoniae = test: Antimicrobial activity against Klebsiella pneumoniae MTCC 109 assessed as growth inhibition after 24 hr by broth microdilution method
Escherichia coli = test: Antimicrobial activity against Escherichia coli MTCC 43 assessed as growth inhibition after 24 hr by broth microdilution method
Burkholderia cepacia = test: Antimicrobial activity against Burkholderia cepacia MTCC 438 assessed as growth inhibition after 24 hr by broth microdilution method
Micrococcus luteus = test: Antimicrobial activity against Micrococcus luteus MTCC 2470 assessed as growth inhibition after 24 hr by broth microdilution method
Bacillus subtilis = test: Antimicrobial activity against Bacillus subtilis MTCC 121 assessed as growth inhibition after 24 hr by broth microdilution method
Staphylococcus aureus = test: Antimicrobial activity against Staphylococcus aureus MTCC 3160 assessed as growth inhibition after 24 hr by broth microdilution method
[1] = test system: Radical scavenging activity; test: Antioxidant activity assessed as inhibition of DPPH radical formation at 2 mg/ml after 30 min by spectrophotometric analysis
Trichophyton rubrum = test: Antimicrobial activity against Trichophyton rubrum MTCC 296 assessed as growth inhibition after 5 days by broth microdilution method

Row | SMILES | MIC (Aspergillus sydowii; MTCC 4335, 120 h) | MIC (Aspergillus parasiticus; MTCC 2797, 120 h) | MIC (Aspergillus niger) | MIC (Enterobacter cloacae) | MIC (Pseudomonas aeruginosa) | MIC (Escherichia coli) | MIC (Burkholderia cepacia) | MIC (Bacillus subtilis) | MIC (Staphylococcus aureus) | MIC (Aspergillus niger; MTCC 404, 120 h) | MIC (Pichia kudriavzevii; MTCC 231, 24 h) | MIC (Candida albicans; MTCC 3017, 24 h) | MIC (Enterobacter cloacae; MTCC 509, 24 h) | MIC (Pseudomonas aeruginosa; MTCC 424, 24 h) | MIC (Klebsiella pneumoniae; MTCC 109, 24 h) | MIC (Escherichia coli; MTCC 43, 24 h) | MIC (Micrococcus luteus; MTCC 2470, 24 h) | MIC (Bacillus subtilis; MTCC 121, 24 h) | MIC (Staphylococcus aureus; MTCC 3160, 24 h) | MIC (Trichophyton rubrum; MTCC 296, 120 h) | further results
1 | COc1ccc(/N=C/C=C/c2ccc3c(c2)OCO3)cc1OC | 3.21 mM (≈ 999 µg/mL) | 1.6 mM (≈ 498 µg/mL) | inactive | inactive | inactive | inactive | inactive | inactive | inactive |  |  |  |  |  |  |  |  |  |  |  | MIC (Pichia kudriavzevii): inactive; MIC (Candida albicans): inactive; MIC (Klebsiella pneumoniae): inactive; MIC (Micrococcus luteus): inactive; inhibition [1]: 15.4%; MIC (Trichophyton rubrum): inactive
2 | Cc1cc(C(C)(C)C)c(O)c(C(C)(C)C)c1 |  |  |  |  |  |  |  |  |  |  |  |  |  |  |  |  |  |  |  |  | inhibition [1]: 91.6%
3 | C(=C\c1nc2ccccc2[nH]1)/c1ccc2c(c1)OCO2 | 1.9 mM (≈ 502 µg/mL) | 1.9 mM (≈ 502 µg/mL) |  |  |  |  |  |  |  | 0.95 mM (≈ 251 µg/mL) | 0.47 mM (≈ 124 µg/mL) | 0.47 mM (≈ 124 µg/mL) | 0.95 mM (≈ 251 µg/mL) | 0.01 mM (≈ 2.64 µg/mL) | 1.9 mM (≈ 502 µg/mL) | 1.9 mM (≈ 502 µg/mL) | 1.9 mM (≈ 502 µg/mL) | 3.78 mM (≈ 999 µg/mL) | 1.9 mM (≈ 502 µg/mL) | 0.47 mM (≈ 124 µg/mL) | MIC (Burkholderia cepacia; MTCC 438, 24 h): 0.47 mM (≈ 124 µg/mL); inhibition [1]: 32.6%
4 | COc1cc(OC)c(OC)cc1/C=C/C=O | 4.5 mM (≈ 1000 µg/mL) |  | inactive | inactive | inactive | inactive | inactive | inactive | inactive |  | 8.99 mM (≈ 2000 µg/mL) | 8.99 mM (≈ 2000 µg/mL) |  |  |  |  | 2.25 mM (≈ 500 µg/mL) |  |  | 8.99 mM (≈ 2000 µg/mL) | MIC (Aspergillus parasiticus): inactive; MIC (Klebsiella pneumoniae): inactive
5 | COc1ccc(/C=C/C=O)c(Br)c1OC |  |  | inactive | inactive | inactive | inactive | inactive | inactive | inactive |  |  |  |  |  |  |  |  |  |  |  | MIC (Aspergillus sydowii): inactive; MIC (Aspergillus parasiticus): inactive; MIC (Pichia kudriavzevii): inactive; MIC (Candida albicans): inactive; MIC (Klebsiella pneumoniae): inactive; MIC (Micrococcus luteus): inactive; MIC (Trichophyton rubrum): inactive
6 | COc1ccc(/C=C/C=O)cc1 [PARA-METHOXY CINNAMALDEHYDE] | 3.08 mM (≈ 500 µg/mL) | 3.08 mM (≈ 500 µg/mL) |  |  |  |  | inactive |  |  | 3.08 mM (≈ 500 µg/mL) | 0.77 mM (≈ 125 µg/mL) | 0.77 mM (≈ 125 µg/mL) | 3.08 mM (≈ 500 µg/mL) | 0.77 mM (≈ 125 µg/mL) | 3.08 mM (≈ 500 µg/mL) | 3.08 mM (≈ 500 µg/mL) | 3.08 mM (≈ 500 µg/mL) | 6.16 mM (≈ 999 µg/mL) | 3.08 mM (≈ 500 µg/mL) | 0.77 mM (≈ 125 µg/mL) | 
7 | C=CCc1ccc2c(c1)OCO2 [SAFROLE] |  |  | inactive | inactive | inactive | inactive | inactive | inactive | inactive |  | 6.16 mM (≈ 999 µg/mL) | 6.16 mM (≈ 999 µg/mL) |  |  |  |  |  |  |  | 6.16 mM (≈ 999 µg/mL) | MIC (Aspergillus sydowii): inactive; MIC (Aspergillus parasiticus): inactive; MIC (Klebsiella pneumoniae): inactive; MIC (Micrococcus luteus): inactive
8 | CCCCCCCCCCCCOC(=O)/C=C/c1ccccc1 |  |  | inactive | inactive | inactive | inactive | inactive | inactive | inactive |  | 0.39 mM (≈ 123 µg/mL) | 0.79 mM (≈ 250 µg/mL) |  |  | 3.16 mM (≈ 1000 µg/mL) |  |  |  |  | 0.79 mM (≈ 250 µg/mL) | MIC (Aspergillus sydowii): inactive; MIC (Aspergillus parasiticus): inactive; MIC (Micrococcus luteus): inactive
9 | O=C/C=C/c1ccc2c(c1)OCO2 | 0.35 mM (≈ 61.7 µg/mL) | 0.71 mM (≈ 125 µg/mL) |  |  |  |  |  |  |  | 1.42 mM (≈ 250 µg/mL) | 0.35 mM (≈ 61.7 µg/mL) | 0.35 mM (≈ 61.7 µg/mL) | 1.42 mM (≈ 250 µg/mL) | 0.35 mM (≈ 61.7 µg/mL) | 1.42 mM (≈ 250 µg/mL) | 2.84 mM (≈ 500 µg/mL) | 2.84 mM (≈ 500 µg/mL) | 2.84 mM (≈ 500 µg/mL) | 2.84 mM (≈ 500 µg/mL) | 0.35 mM (≈ 61.7 µg/mL) | MIC (Burkholderia cepacia; MTCC 438, 24 h): 0.71 mM (≈ 125 µg/mL)
10 | O=Cc1ccc2c(c1)OCO2 [PIPERONAL] | 3.33 mM (≈ 500 µg/mL) | 3.33 mM (≈ 500 µg/mL) |  |  |  |  | inactive |  |  | 3.33 mM (≈ 500 µg/mL) | 0.83 mM (≈ 125 µg/mL) | 0.83 mM (≈ 125 µg/mL) | 3.33 mM (≈ 500 µg/mL) | 0.83 mM (≈ 125 µg/mL) | 3.33 mM (≈ 500 µg/mL) | 3.33 mM (≈ 500 µg/mL) | 3.33 mM (≈ 500 µg/mL) | 6.66 mM (≈ 1000 µg/mL) | 3.33 mM (≈ 500 µg/mL) | 0.83 mM (≈ 125 µg/mL) | 
11 | O=CCCc1ccccc1 [DIHYDROCINNAMALDEHYDE] | 3.72 mM (≈ 499 µg/mL) | 14.9 mM (≈ 2000 µg/mL) |  |  |  |  |  |  |  | 7.45 mM (≈ 1000 µg/mL) | 3.72 mM (≈ 499 µg/mL) | 3.72 mM (≈ 499 µg/mL) | 7.45 mM (≈ 1000 µg/mL) | 7.45 mM (≈ 1000 µg/mL) | 7.45 mM (≈ 1000 µg/mL) | 7.45 mM (≈ 1000 µg/mL) | 7.45 mM (≈ 1000 µg/mL) | 7.45 mM (≈ 1000 µg/mL) | 14.9 mM (≈ 2000 µg/mL) | 3.72 mM (≈ 499 µg/mL) | MIC (Burkholderia cepacia; MTCC 438, 24 h): 14.9 mM (≈ 2000 µg/mL)
12 | O=C(O)/C=C/c1ccccc1 [CINNAMIC ACID] | 1.68 mM (≈ 249 µg/mL) | 3.37 mM (≈ 499 µg/mL) |  |  |  |  |  |  |  | 1.68 mM (≈ 249 µg/mL) | 0.84 mM (≈ 124 µg/mL) | 0.42 mM (≈ 62.2 µg/mL) | 6.75 mM (≈ 1000 µg/mL) | 13.5 mM (≈ 2000 µg/mL) | 6.75 mM (≈ 1000 µg/mL) | 13.5 mM (≈ 2000 µg/mL) | 6.75 mM (≈ 1000 µg/mL) | 6.75 mM (≈ 1000 µg/mL) | 3.37 mM (≈ 499 µg/mL) | 0.42 mM (≈ 62.2 µg/mL) | MIC (Burkholderia cepacia; MTCC 438, 24 h): 6.75 mM (≈ 1000 µg/mL)
